Assay results published in ChEMBL document CHEMBL1165918, “Synthesis and biological activity of N-aroyl-tetrahydro-gamma-carbolines” (Bioorg Med Chem, 2010).

Tests used:
[1] = biological target: T1, Prostaglandin G/H synthase 1 (Homo sapiens, UniProt P23219); type: tissue-based, Blood
Description: Inhibition of COX1 in human whole blood assessed as inhibition of 12-hydroxyheptadecatrienoic acid production by HPLC method

L1210 [2] = experiment: Growth inhibition of mouse L1210 cells at 10 uM after 72 hrs by MTT assay; type: functional; conditions: L1210, 72 h, read-out: GI
MCF7 [3] = experiment: Growth inhibition of human MCF7 cells at 10 uM after 72 hrs by MTT assay; type: functional; conditions: MCF7, 72 h, read-out: GI
PC-3 [4] = experiment: Growth inhibition of human PC3 cells at 10 uM after 72 hrs by MTT assay; type: functional; conditions: PC-3, 72 h, read-out: GI
L1210 [5] = experiment: Cytotoxicity against mouse L1210 cells after 72 hrs by MTT assay; type: functional, cell-based; conditions: L1210, 72 h
PC-3 [6] = experiment: cells; conditions: Homo sapiens, PC-3, 72 h
Description: Cytotoxicity against human PC3 cells after 72 hrs by MTT assay

[7] = biological target: T1, Prostaglandin G/H synthase 1; experiment: Inhibition of COX1 in human whole blood assessed as inhibition of 12-hydroxyheptadecatrienoic acid production at 10 uM by HPLC method; type: tissue-based
[8] = biological target: T2, Polyunsaturated fatty acid 5-lipoxygenase (Homo sapiens, UniProt P09917)
T2 sequence (P09917 whole entry): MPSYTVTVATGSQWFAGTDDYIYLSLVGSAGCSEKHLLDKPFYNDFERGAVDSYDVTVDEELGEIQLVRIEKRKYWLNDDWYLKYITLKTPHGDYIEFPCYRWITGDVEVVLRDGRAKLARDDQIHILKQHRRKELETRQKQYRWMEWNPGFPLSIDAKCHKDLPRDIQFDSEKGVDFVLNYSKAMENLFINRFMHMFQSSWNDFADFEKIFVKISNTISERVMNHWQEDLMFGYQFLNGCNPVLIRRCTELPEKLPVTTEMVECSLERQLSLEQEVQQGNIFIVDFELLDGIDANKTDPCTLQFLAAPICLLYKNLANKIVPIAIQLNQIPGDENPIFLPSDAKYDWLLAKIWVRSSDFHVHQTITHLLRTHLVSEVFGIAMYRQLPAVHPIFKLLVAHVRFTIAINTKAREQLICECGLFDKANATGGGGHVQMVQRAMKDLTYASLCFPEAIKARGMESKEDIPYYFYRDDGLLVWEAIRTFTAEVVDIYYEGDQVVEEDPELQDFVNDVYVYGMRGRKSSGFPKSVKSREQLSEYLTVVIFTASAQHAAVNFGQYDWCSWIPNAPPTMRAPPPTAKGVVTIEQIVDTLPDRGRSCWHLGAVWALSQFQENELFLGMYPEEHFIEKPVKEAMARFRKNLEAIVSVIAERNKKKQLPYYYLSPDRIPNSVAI

[9] = biological target: T2, Polyunsaturated fatty acid 5-lipoxygenase; remark: listed apart in the source
[10] = biological target: T3, Polyunsaturated fatty acid 5-lipoxygenase (Homo sapiens) (UniProt P09917); type: tissue-based; conditions: Blood, 10 uM
T3 sequence (whole entry): T2 sequence (P09917 whole entry)

[11] = biological target: T2, Polyunsaturated fatty acid 5-lipoxygenase; experiment: Inhibition of 5-lipoxygenase in human whole blood; type: tissue-based
[12] = biological target: T1, Prostaglandin G/H synthase 1; experiment: Inhibition of COX1 in human whole blood; type: tissue-based
Homo sapiens = organism: Homo sapiens; experiment: Selectivity ratio of IC50 for COX2 in human whole blood to IC50 for COX1 in human whole blood; type: tissue-based
[13] = biological target: T4, Prostaglandin G/H synthase 2 (Homo sapiens) (UniProt P35354); experiment: Inhibition of COX2 in human whole blood assessed as inhibition of 12-hydroxyheptadecatrienoic acid production at 10 uM by HPLC method; type: tissue-based
T4 sequence (whole entry): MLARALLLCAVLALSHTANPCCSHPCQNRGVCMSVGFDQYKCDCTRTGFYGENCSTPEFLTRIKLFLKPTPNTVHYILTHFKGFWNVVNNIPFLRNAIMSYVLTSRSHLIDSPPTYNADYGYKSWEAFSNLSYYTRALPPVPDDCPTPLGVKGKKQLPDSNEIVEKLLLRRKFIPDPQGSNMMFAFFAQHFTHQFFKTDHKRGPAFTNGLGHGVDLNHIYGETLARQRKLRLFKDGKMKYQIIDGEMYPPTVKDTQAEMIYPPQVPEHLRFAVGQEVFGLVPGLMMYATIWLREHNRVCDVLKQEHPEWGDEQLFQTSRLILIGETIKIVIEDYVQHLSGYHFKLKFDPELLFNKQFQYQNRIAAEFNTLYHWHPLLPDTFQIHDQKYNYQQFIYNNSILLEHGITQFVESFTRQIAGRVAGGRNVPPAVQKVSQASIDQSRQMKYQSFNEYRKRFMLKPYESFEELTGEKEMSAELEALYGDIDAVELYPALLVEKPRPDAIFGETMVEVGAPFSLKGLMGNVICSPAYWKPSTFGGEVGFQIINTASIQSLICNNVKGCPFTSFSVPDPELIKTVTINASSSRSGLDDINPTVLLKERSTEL

MCF7 [14] = experiment: cells; conditions: Homo sapiens, MCF7, 72 h
Description: Cytotoxicity against human MCF7 cells after 72 hrs by MTT assay

T1 sequence (P23219 whole entry): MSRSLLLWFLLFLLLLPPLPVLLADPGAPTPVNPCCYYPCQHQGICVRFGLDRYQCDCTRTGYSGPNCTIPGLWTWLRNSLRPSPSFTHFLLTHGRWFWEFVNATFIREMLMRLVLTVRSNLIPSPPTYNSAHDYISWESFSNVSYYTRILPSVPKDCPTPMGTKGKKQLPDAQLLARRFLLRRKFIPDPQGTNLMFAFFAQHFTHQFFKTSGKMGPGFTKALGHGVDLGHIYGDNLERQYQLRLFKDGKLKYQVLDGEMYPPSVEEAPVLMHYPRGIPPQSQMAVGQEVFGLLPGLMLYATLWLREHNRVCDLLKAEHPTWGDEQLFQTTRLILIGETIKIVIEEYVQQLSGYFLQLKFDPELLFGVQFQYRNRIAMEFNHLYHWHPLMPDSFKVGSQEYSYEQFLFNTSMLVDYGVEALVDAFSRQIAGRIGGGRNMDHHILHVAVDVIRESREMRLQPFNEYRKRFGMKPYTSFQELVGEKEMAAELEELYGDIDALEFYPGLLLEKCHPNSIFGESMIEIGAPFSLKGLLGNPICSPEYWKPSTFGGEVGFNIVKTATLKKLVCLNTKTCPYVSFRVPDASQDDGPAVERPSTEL

Row | SMILES | IC50 [1] [µM] | inhibition of growth at 10 µM (L1210 [2]) [%] | inhibition of growth at 10 µM (MCF7 [3]) [%] | inhibition of growth at 10 µM (PC-3 [4]) [%] | IC50 [8] [µM] | IC50 [9] [µM] | also measured
1 | CS(=O)(=O)c1ccc2c(c1)c1c(n2C(=O)c2ccccc2)CCNC1 | 24.4 | 0 | 0 | 7 |  |  | 
2 | COc1ccc2c(c1)c1c(n2Cc2ccc(S(C)(=O)=O)cc2)CCN(CCCOc2cc(F)cc(C3(OC)CCOCC3)c2)C1 |  |  | 27 |  |  |  | IC50 (L1210 [5]): 5 µM; IC50 (PC-3 [6]): 8 µM
3 | COc1ccc2c(c1)c1c(n2C(=O)c2ccccc2F)CCN(CCCOc2cc(F)cc(C3(OC)CCOCC3)c2)C1 |  | 45 | 21 | 15 | 39.3 | > 10 | inhibition [7]: 83.5%
4 | COc1ccc2c(c1)c1c(n2C(=O)c2ccc(S(=O)(=O)/N=C/N(C)C)cc2)CCN(CCCOc2cc(F)cc(C3(OC)CCOCC3)c2)C1 |  |  | 21 | 42 |  | > 10 | inhibition [10]: 81.4%; IC50 (L1210 [5]): 6 µM
5 | COc1ccc2c(c1)c1c(n2C(=O)c2ccccc2)CCNC1 | 6 | 32 | 0 | 0 |  |  | 
6 | COC1(c2cc(F)cc(OCc3cc(-c4ccccc4)n(-c4ccc(S(C)(=O)=O)cc4)n3)c2)CCOCC1 |  |  |  |  |  |  | IC50 [11]: 200 nM; IC50 [12]: > 10 µM
7 | COc1ccc2c(c1)c1c(n2C(=O)c2ccc(Br)cc2)CCN(CCCOc2cc(F)cc(C3(OC)CCOCC3)c2)C1 | 16.5 | 42 | 39 | 0 | 47.4 | 62 | 
8 | COc1ccc2c(c1)c1c(n2C(=O)c2ccccc2)CCN(CCCOc2cc(F)cc(C3(OC)CCOCC3)c2)C1 |  | 20 | 18 | 20 | 66.4 | 108 | inhibition [7]: 84.3%
9 | COC(=O)c1cc2cc(S(C)(=O)=O)ccc2n1Cc1ccc(Cl)cc1 |  |  |  |  |  |  | IC50 [12]: > 10 µM; Ratio IC50 (Homo sapiens): < 0.05
10 | COC1(c2cc(F)cc(OCCCN3CCc4c(c5cc(F)ccc5n4Cc4ccc(S(C)(=O)=O)cc4)C3)c2)CCOCC1 | 180 | 38 | 34 |  | 29.5 | 24.6 | IC50 (PC-3 [6]): 8 µM
11 | COC1(c2cc(F)cc(OCCCN3CCc4c(c5cc(S(C)(=O)=O)ccc5n4C(=O)c4ccccc4)C3)c2)CCOCC1 | 24 | 38 | 15 | 37 |  |  | inhibition [13]: 8.4%
12 | COC1(c2cc(F)cc(OCCCN3CCc4c(c5cc(S(C)(=O)=O)ccc5n4CCCOc4cc(F)cc(C5(OC)CCOCC5)c4)C3)c2)CCOCC1 |  |  | 36 |  |  |  | IC50 (L1210 [5]): 3 µM
13 | COc1ccc2c(c1)c1c(n2C(=O)c2c(Cl)cc(Cl)cc2Cl)CCN(CCCOc2cc(F)cc(C3(OC)CCOCC3)c2)C1 | 36.7 | 11 | 36 | 0 | 45.4 | 55 | 
14 | COc1ccc2c(c1)c1c(n2C(=O)c2ccc(Cl)cc2)CCN(CCCOc2cc(F)cc(C3(OC)CCOCC3)c2)C1 | 7.4 |  |  | 9 | 59.3 | 119 | IC50 (L1210 [5]): 8 µM; IC50 (MCF7 [14]): 8 µM
15 | COc1ccc2c(c1)c1c(n2C(=O)c2cccc(F)c2)CCN(CCCOc2cc(F)cc(C3(OC)CCOCC3)c2)C1 | 7.8 | 40 | 8 | 44 | 38 | 40.5 | 
16 | COC1(c2cc(F)cc(OCCCN3CCc4c(c5ccccc5n4C(=O)c4ccccc4)C3)c2)CCOCC1 | 18.2 | 24 | 30 | 6 | 92.9 | 206 | 
17 | COc1ccc2c(c1)c1c(n2C(=O)c2ccc(F)cc2)CCN(CCCOc2cc(F)cc(C3(OC)CCOCC3)c2)C1 |  | 44 | 37 | 0 | 58 | 59.9 | inhibition [7]: 71.6%
18 | Cc1ccc(-c2cc(C(F)(F)F)nn2-c2ccc(S(N)(=O)=O)cc2)cc1 [CELECOXIB] |  |  |  |  |  |  | IC50 (L1210 [5]): 44 µM; IC50 (MCF7 [14]): 50.2 µM
